From patent US6759431B2, “Compositions and methods for treating or preventing diseases of body passageways” (Angiotech Pharmaceuticals, Inc., priority 1996, dated 2004)
Several values for one entry are separate records, joined by “and”; a condition that tells them apart may be missing. Identical values can stand only once. Like-named read-outs stand apart in the source and are kept apart here. Values belong to the compound of their own block, whether it stands above or below them.

Assays:
[1] = system: HT-29 colon, MCF-7 breast and SKMES1 non-small cell lung human tumor cell lines; experiment: Radiometric (Bactec) cytotoxicity, tumor cell lines; format: cell-based; conditions: continuous exposure
Protocol: A. Human Tumor Cell Lines The HT-29 colon, MCF-7 breast and SKMES1 non-small cell lung human tumor cell lines were obtained from the American Type Culture Collection. The HT-29 colon cell line was cultured in RPMI 1640 with 10% heat inactivated fetal bovine serum (HIFBS), the MCF-7 breast cell line in Iscove's modified Eagles medium with 5% HIFBS plus 10^-9 M insulin, and the SKMES1 lung cell line in Eagle's minimal essential medium with 10% non-heat inactivated FBS.
(§1) The Bactec system (Johnston Laboratories, Towson, Md.) is based on a clinical instrument which was developed to detect bacteria in blood cultures and has been used to screen for new antineoplastic agents. This radiometric system is a rapid, semiautomated system which utilizes the inhibition of the conversion of ^14C glucose to […] as an index of cytotoxicity. The Bactec machine automatically flushes out the ^14CO2 into an ion chamber where the signal of the radiolabelled CO2 is changed into a proportional electrical signal or growth index value on a scale of 1 to 1000. […] The growth index values of BMOV treated cells were compared to the growth index values of non-treated cells and the % survival compared to untreated controls was calculated.

[2] = Solubility of vanadium complexes in PBS/ALB; format: physicochemical; conditions: 10 mM PBS with albumin, pH 7.4
Protocol: Quantitative analysis (UV/VIS spectrophometric analysis) was done with different concentrations of vanadium solutions to obtain the wavelengths of peak absorbance and the calibration equations. Solubility of vanadium was studies in 10 mM phosphate buffered saline with albumin (PBS/ALB) (pH 7.4). 1%, 5%, 10%, and 20% (% vanadium complex in PCL) of each organic complex form of vanadium were encapsulated in a biodegradable polymer PCL and/or in blends of PLC with MePEG (MW 350) to produce a polymeric drug delivery product called a “thermopaste”. In vitro release studies of the various forms of vanadium from thermopastes were carried out at 37° C. in PBS/ALB with vanadium release measured by UV/VIS absorbance spectroscopy.

[3] = Body weights of mice, BMOV microsphere study; format: in vivo; conditions: 0.25 mg × 1, subcutaneous, in g (unit assumed)
Protocol: (§2) Twenty of twenty-four mice were injected subcutaneously with […] of MDAY-D2 cells with density of 10×10^6/ml. On day 6 the mice were divided into 6 groups. Group 1, empty control, group 2, tumor control, group 3, were injected subcutaneously with 0.25 mg/100 ul BMOV, twice a day. Group 4 was injected IP with 20 mg PLLA microspheres containing 5 mg of BMOV. Group 5 was injected IP with 10 mg of BMOV microspheres on day 6 and day 9 respectively. Group 6 was injected intramuscularly with 10 mg of BMOV microspheres on day 6 and day 9. On day 16, the mice were sacrificed and tumors were dissected.

[4] = system: normal human bone marrow cells; experiment: Radiometric (Bactec) cytotoxicity, marrow cells; format: cell-based
Protocol: Normal human bone marrow (histologically negative for tumor cells) was obtained from patients who were to have bone marrow transplants for their solid tumors but died before the marrow was used. After centrifugation, the buffy coat was removed and cells were treated with lysis buffer and washed twice with and then resuspended in RPMI 1640 with 20% HIFBS. The cells were drawn through a 25 g needle and counted.
as §1

MDAY-D2 tumor = experiment: BMOV microspheres, tumor growth in mice; format: in vivo; conditions: s.c.
Protocol: as §2

CAM = format: in vivo, chick; conditions: for drug loading that was toxic to the embryo: chick, in vivo
Protocol: Vinca alkaloids (vinblastine and vincristine) were ground with a pestle and mortar to reduce the particle size to below 5 microns. They were then mixed as a dry powder with polycaprolactone (molecular wt. 18000 Birmingham Polymers, AL USA). The mixture is heated to 65° C. for 5 minutes and the molten polymer/agent mixture is stirred into a smooth paste for 5 minutes. The molten paste is then taken into a 1 ml syringe and extruded to form 3 mg pellets. These pellets were then tested in the CAM assay.

[5] = Release from 50:50 ELVAX:poly-l-lactic acid microspheres, tumbling at 37° C.; format: physicochemical; conditions: 18 hours tumbling at 37° C.
Protocol: Five hundred micrograms of either paclitaxel or baccatin (a paclitaxel analog, available from Inflazyme Pharmaceuticals Inc., Vancouver, British Columbia, Canada) are dissolved in 1 ml of a 50:50 ELVAX:poly-1-lactic acid mixture in dcm. Microspheres are then prepared in a dissolution machine (Six-spindle dissolution tester, VanderKanp, Van Kell Industries Inc., U.S.A.) in triplicate at 200 rpm, 42° C., for 3 hours. Microspheres so prepared are washed twice in water and sized on the microscope.
Determination of paclitaxel encapsulation is undertaken in a uv/vis assay (uv/vis lambda max. at 237 nm, fluorescence assay at excitation 237, emission at 325 nm; Fluorescence results are presented in square brackets [ ]).

[6] = Stability of paclitaxel in cyclodextrin solutions; format: physicochemical
Protocol: The solutions containing 20% HPβCD or HPγCD had pH values of 3.9 and 5.2, respectively. The stability of paclitaxel in cyclodextrin solutions was investigated by assaying paclitaxel in solutions (20 μg ml^−1) containing 10 or 20% HPγ-CD or HPβ-CD in either water or a 50:50 water-ethanol mixture at 37° C. or 55° C. at various time intervals. In addition, stability of paclitaxel in solutions (1 μg/ml) containing 1%, 2% or 5% HPβCD at 55° C. were determined.

[7] = Solubility of paclitaxel in cyclodextrin solutions; format: physicochemical; conditions: 50% HPβCD in water, 37° C.
Protocol: Excess amounts of paclitaxel (5 mg) were added to aqueous solutions containing various concentrations of γ-CD, HPγ-CD, or HPβ-CD and tumbled gently for about 24 hours at 37° C. After equilibration, aliquots of the suspension were filtered through a 0.45 μm membrane filter (Millipore), suitably diluted and analyzed using HPLC. The mobile phase was composed of a mixture of acetonitrile, methanol and water (58:5:37) at a flow rate of 1.0 ml min^−1.

[8] = Complexation of paclitaxel with cyclodextrins (stability constants); format: physicochemical; conditions: for estimated stability constants for first order complexes of paclitaxel-cyclodextrins / stability constants for second order complexes of paclitaxel-cyclodextrins: water, 37° C.
Protocol: Excess amounts of paclitaxel (5 mg) were added to aqueous solutions containing various concentrations of γ-CD, HPγ-CD, or HPβ-CD and tumbled gently for about 24 hours at 37° C. After equilibration, aliquots of the suspension were filtered through a 0.45 μm membrane filter (Millipore), suitably diluted and analyzed using HPLC. […] Aliquots were taken at various time intervals and assayed for paclitaxel.

[9] = fluorescence assay (square brackets)

Compound: Cc1occc(=O)c1[O-].Cc1occc(=O)c1[O-].[O]=[V+2] [BMOV, Bis[maltolato(oxovanadium)] (IV)]]
antineoplastic effect in vitro [1]: antineoplastic effect of BMOV have been shown in vitro
rate and extent of solubility, order [2]: V5>BMOV & BEMOV>PRC-V
Body weights, Average [3]: 17.87
Body weights, individual mice ([3]; listed as BMOV Solution): 18.4 and 17.3 and 18 and 17.8
survival compared to untreated controls ([4]; continuous exposure, 50 μM): 49%
effect on cells ([4]; one hour exposure, up to 50 μM): very little effect
Tumor weight, Average (MDAY-D2 tumor): 0.15
Tumor weight, individual mice (MDAY-D2 tumor; listed as BMOV solution): 0.04 and 0.4 and 0.12 and 0.07

Compound: CC[C@]1(O)C[C@@H]2CN(CCc3c([nH]c4ccccc34)[C@@](C(=O)OC)(c3cc4c(cc3OC)N(C)[C@H]3[C@@](O)(C(=O)OC)[C@H](OC(C)=O)[C@]5(CC)C=CCN6CC[C@]43[C@@H]65)C2)C1 [Vinblastine, vinblastine]
angiogenesis inhibition on the CAM (CAM; 0.25%, 0.5% and 1% in PCL pellets): effective in inhibiting angiogenesis
drug loading that was toxic to the embryo (CAM): exceeding 2%

Compound: CC(=O)O[C@H]1C(=O)[C@@]2(C)[C@H]([C@H](OC(=O)c3ccccc3)[C@]3(O)C[C@H](OC(=O)[C@H](O)[C@@H](NC(=O)c4ccccc4)c4ccccc4)C(C)=C1C3(C)C)[C@]1(OC(C)=O)CO[C@@H]1C[C@@H]2O [paclitaxel]
percent of total released from the microspheres [5, 9]: 6%
percent of total released from the microspheres ([5]; uv/vis assay): 10.3%
degradation rate constant k (pseudo-first order) ([6]; 1 μg/ml paclitaxel, 1% HPβCD, 55° C.): 0.00338 h⁻¹
degradation rate constant ([6]; 10% HPβCD (FIG. 47 legend: 20 μg ml^−1, 37° C.)): 0.00178 h⁻¹
degradation rate constant ([6]; 10% HPγCD (FIG. 47 legend: 20 μg ml^−1, 37° C.)): 0.00096 h⁻¹
fold increase over the solubility of paclitaxel in water [7]: ~2000 fold

Compound: CC[C@]1(O)C[C@H]2CN(CCc3c([nH]c4ccccc34)[C@@](C(=O)OC)(c3cc4c(cc3OC)N(C=O)[C@H]3[C@@](O)(C(=O)OC)[C@H](OC(C)=O)[C@]5(CC)C=CCN6CC[C@]43[C@@H]65)C2)C1 [vincristine]
angiogenesis inhibition on the CAM (CAM; 0.5% and 0.1% drug loading in PCL pellets): all of the CAMs tested
drug loading that was toxic to the embryo (CAM): exceeding 2%

Compound: baccatin
percent of total released from the microspheres [5, 9]: 60%
percent of total released from the microspheres ([5]; uv/vis assay): 55%

Second part, the compound after the results:

estimated stability constants for first order complexes of paclitaxel-cyclodextrins [8]: 3.1 M⁻¹
stability constants for second order complexes of paclitaxel-cyclodextrins [8]: 785 M⁻¹
Compound: OC[C@H]1O[C@@H]2O[C@H]3[C@H](O)[C@@H](O)[C@@H](O[C@H]4[C@H](O)[C@@H](O)[C@@H](O[C@H]5[C@H](O)[C@@H](O)[C@@H](O[C@H]6[C@H](O)[C@@H](O)[C@@H](O[C@H]7[C@H](O)[C@@H](O)[C@@H](O[C@H]8[C@H](O)[C@@H](O)[C@@H](O[C@H]9[C@H](O)[C@@H](O)[C@@H](O[C@H]1[C@H](O)[C@H]2O)O[C@@H]9CO)O[C@@H]8CO)O[C@@H]7CO)O[C@@H]6CO)O[C@@H]5CO)O[C@@H]4CO)O[C@@H]3CO [γ-CD, γ-cyclodextrin]

times lower than the stability constant in the absence of ethanol ([8]; 50% ethanol): about 300 times
apparent stability constant for the complexation with paclitaxel ([8]; in the presence of 50% ethanol): 26.57 M⁻¹
estimated stability constants for first order complexes of paclitaxel-cyclodextrins [8]: 7.2 M⁻¹
stability constants for second order complexes of paclitaxel-cyclodextrins [8]: 7965 M⁻¹
Compound: Hydroxypropyl-β-cyclodextrin [HPβCD]

estimated stability constants for first order complexes of paclitaxel-cyclodextrins [8]: 5.8 M⁻¹
stability constants for second order complexes of paclitaxel-cyclodextrins [8]: 1886 M⁻¹
Compound: hydroxypropyl-γ-cyclodextrin [HPγCD]
